Data reported in US20210401782A1, “COMPOSITION FOR PREVENTING AND TREATMENT OF STROKE” (NEUROBIOGEN CO.,LTD, priority 2018, published 2021).

Key:
Assay type in all cases: in vivo, SD rat
[1] = tested on: rodent stroke model; experiment: neurofiber staining, size of the infarction in an internal capsule; conditions: 10 mg/kg orally once a day
Protocol: (§1) Light stimuli was applied to the posterior limb of the internal capsule of a 9 week-old SD rat to produce a white-matter cerebral infarction animal model.
(§2) Specifically, the animal was anesthetized with an anesthetic drug, a combination of ketamine (ketamine hydrochloride, 100 mg/kg) and xylazine (7 mg/kg), and a hole was drilled at a position of 2.0 mm rearwards and 3.1 mm laterally outwards from the skull bregma using stereotaxis, and an optical fiber (inner diameter of 62.5 μm, outer diameter of 125 μm) was inserted to a depth of 7.2 mm to target the posterior limb of the internal capsule. Rose bengal (20 mg/kg) was injected into the tail vein, and optical stimulation was conducted using a 3.7 mW green laser for 1.5 minutes through an optical fiber. Then, the optical fiber was removed and the operation was completed, ketoprofen (2 mg/kg) was injected for pain control, and then the animal was allowed to recover. The control group was injected with 0.9% saline, instead of rose bengal.
Rats in the group administered with KDS2010 as a drug were orally administered with a solution of KDS2010 in saline at a concentration of 10 mg/kg once a day (FIG. 2A).
Rats in the rehabilitation-trained group practiced a single-pellet reaching task (SPRT) for 20 minutes daily for 3 weeks after stroke surgery. […]

[2] = tested on: rodent stroke model; experiment: cylinder test in rodent stroke model; conditions: Stroke+KDS2010: 10 mg/kg orally once a day, no rehabilitation; compared to the control group
Protocol: as §1
as §2, with “bengal. […]” for “bengal.”
For the cylinder test, animals were placed in a transparent cylinder (20 cm in diameter and 30 cm in height) to observe which limb was used more when supporting the cylinder wall with the forelimbs. A total of 20 movements were recorded, and the ratio of the use of the forelimb corresponding to the stroke and the opposite forelimb was calculated during the total number of cycles.

[3] = tested on: rodent stroke model; experiment: single-pellet reaching task (SPRT) in rodent stroke model; conditions: Stroke+rehab+KDS2010: 10 mg/kg orally once a day plus rehabilitation training; white-matter cerebral infarction rat model
Protocol: as §1
as §2, with “bengal. […]” for “bengal.”
For the single-pellet reaching task, an acrylic box (45 cm×13 cm×40 cm) having a 1 cm vertical slit on the front wall thereof was used, and a sugar pellet was placed in front of the slit. […] The proportion of the number of pellets remaining in the mouth, without dropping, to 20 pellets in total was calculated.

## C[C@H](NCc1ccc(-c2ccc(C(F)(F)F)cc2)cc1)C(N)=O [KDS2010, (S)-2-(((4′-trifluoromethylbiphenyl-4-yl)methyl)amino)propanamide methanesulfonate]
[1]; Stroke+KDS: drug-administered group, no rehabilitation, versus control group
  size of the infarction in the internal capsules: considerably larger size of the infarction
[1]; Stroke+rehab+KDS: rehabilitation training in combination with drug administration
  size of the infarction in the internal capsules: further reduced infarction sizes
[2]
  motor function using the cylinder test: significantly recovered motor function
[3]
  motor function through single-pellet reaching task: recovered motor function to an almost normal level
